Test in all cases: kinase binding screen (kinase-tagged T7 phage, qPCR), % Ctrl
On the technique in general: In qPCR the cycle at which signal appears reflects the starting amount.

Experiment [1] addresses TYK2(JH2domain-pseudokinase) (Homo sapiens, UniProt P29597). A digest of the protocol: (§1)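 Steps: grow T7 phage displaying kinase in BL21-derived E. coli; clarify lysate; combine with ligand-liganded, blocked beads and compound (single concentration, diluted from 40× DMSO stock); elute; quantify kinase by qPCR.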
Experiment [2] has as its target CDK7 (Homo sapiens, UniProt P50613). A digest of the protocol: as §1
The target in experiment [3] is T1, GAK (Homo sapiens, UniProt O14976).
T1 sequence (O14976 1-1311): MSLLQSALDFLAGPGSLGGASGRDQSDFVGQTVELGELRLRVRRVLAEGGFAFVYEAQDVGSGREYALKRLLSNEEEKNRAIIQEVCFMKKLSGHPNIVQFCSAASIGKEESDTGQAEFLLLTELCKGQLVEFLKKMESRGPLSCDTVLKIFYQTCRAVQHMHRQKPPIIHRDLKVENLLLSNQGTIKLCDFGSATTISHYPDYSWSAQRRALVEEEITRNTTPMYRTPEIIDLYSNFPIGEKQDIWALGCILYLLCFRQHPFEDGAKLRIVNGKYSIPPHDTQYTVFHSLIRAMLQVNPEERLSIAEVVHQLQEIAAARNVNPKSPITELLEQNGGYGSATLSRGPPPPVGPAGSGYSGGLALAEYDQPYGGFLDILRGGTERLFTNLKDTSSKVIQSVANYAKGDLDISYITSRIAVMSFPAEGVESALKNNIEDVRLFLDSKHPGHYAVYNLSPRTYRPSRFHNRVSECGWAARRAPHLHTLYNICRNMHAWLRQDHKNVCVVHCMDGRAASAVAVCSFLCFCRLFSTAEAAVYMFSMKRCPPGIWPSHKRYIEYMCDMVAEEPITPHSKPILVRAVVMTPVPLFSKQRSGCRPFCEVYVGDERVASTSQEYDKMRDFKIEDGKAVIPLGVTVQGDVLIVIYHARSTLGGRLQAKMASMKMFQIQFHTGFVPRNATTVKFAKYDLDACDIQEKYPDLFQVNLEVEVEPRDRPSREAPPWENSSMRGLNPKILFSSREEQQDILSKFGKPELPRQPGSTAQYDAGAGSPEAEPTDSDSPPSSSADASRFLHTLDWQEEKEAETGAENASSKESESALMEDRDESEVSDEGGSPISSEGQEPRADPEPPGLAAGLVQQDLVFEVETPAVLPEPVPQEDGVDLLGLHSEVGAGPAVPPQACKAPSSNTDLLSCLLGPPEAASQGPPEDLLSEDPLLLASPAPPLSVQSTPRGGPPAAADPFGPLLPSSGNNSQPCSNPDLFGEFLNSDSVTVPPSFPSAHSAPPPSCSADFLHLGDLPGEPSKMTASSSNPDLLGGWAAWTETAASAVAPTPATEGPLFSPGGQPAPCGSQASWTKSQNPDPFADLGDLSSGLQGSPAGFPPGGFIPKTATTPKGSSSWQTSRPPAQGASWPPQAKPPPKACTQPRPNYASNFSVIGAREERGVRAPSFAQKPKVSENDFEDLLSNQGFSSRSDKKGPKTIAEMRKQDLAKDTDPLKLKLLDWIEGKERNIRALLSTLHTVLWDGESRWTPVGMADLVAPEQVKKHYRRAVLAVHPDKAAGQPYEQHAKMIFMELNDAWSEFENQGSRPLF
An outline of the steps:
as §1

The target in experiment [4] is T2, DRAK1 (Homo sapiens, UniProt Q9UEE5).
T2 sequence (Q9UEE5 1-414): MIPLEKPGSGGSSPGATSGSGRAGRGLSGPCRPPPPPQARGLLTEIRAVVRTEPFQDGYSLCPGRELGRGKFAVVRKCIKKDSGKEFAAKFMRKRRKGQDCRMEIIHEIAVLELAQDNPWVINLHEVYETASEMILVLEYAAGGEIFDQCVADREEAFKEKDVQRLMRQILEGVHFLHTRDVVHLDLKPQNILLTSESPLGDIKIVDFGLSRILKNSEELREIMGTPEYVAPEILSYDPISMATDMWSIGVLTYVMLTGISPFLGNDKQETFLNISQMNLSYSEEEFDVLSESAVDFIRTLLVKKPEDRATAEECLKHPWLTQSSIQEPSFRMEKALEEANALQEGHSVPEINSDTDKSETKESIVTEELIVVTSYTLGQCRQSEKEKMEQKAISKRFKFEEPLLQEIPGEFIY
A digest of the protocol: as §1

The target of experiment [5] is T3, PRKCE (Homo sapiens, UniProt Q02156).
T3 sequence (Q02156 1-737): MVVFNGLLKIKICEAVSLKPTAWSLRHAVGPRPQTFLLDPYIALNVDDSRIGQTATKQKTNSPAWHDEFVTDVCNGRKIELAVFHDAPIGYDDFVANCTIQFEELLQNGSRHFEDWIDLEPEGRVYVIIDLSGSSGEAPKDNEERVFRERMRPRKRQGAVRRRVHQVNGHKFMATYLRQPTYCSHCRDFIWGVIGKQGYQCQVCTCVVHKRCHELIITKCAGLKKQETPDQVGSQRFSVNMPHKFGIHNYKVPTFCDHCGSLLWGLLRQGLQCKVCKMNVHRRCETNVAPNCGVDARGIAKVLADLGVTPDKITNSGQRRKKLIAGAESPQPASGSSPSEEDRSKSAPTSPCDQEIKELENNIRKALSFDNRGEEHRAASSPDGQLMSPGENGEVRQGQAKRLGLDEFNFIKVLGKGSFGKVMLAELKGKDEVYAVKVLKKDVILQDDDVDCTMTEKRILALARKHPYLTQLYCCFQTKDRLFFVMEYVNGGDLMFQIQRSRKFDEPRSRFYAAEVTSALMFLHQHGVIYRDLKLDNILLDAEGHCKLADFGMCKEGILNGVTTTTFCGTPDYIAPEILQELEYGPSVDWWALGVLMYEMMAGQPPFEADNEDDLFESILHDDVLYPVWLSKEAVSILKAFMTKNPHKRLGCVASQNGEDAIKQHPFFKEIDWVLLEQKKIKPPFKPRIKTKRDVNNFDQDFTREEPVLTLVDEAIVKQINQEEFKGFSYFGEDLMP
A digest of the protocol:
as §1

Chain of CDK7 (P50613 whole entry): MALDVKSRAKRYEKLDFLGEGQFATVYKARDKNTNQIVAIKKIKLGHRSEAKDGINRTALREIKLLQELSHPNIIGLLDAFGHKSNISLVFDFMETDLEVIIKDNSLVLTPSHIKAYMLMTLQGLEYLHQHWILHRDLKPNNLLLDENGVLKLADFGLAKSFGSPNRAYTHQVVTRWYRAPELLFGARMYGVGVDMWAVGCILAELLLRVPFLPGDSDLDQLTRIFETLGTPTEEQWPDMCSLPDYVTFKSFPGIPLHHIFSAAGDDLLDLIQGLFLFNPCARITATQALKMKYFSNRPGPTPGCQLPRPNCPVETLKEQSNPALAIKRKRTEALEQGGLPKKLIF
Chain of TYK2(JH2domain-pseudokinase) (P29597 589-875 limits assumed, species assumed): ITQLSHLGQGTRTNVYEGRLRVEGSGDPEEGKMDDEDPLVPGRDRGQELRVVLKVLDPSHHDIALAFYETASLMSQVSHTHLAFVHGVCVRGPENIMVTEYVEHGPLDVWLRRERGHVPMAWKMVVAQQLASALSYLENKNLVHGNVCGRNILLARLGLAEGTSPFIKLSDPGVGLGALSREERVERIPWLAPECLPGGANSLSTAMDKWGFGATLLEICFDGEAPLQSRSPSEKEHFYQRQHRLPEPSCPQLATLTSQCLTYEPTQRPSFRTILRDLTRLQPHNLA

As for `Nc1nc2c(-c3ccccn3)nccc2[nH]1` [drawing 35, 4-(pyrid-2-yl)-1H-imidazo[4,5-c]pyridin-2-amine], the remaining activity (commonly the signal under treatment as a percentage of the control signal) at 1 µM in experiment [1] turned out to be 41%; in experiment [2], 30%; in experiment [3], 54%; in experiment [4], 56%; in experiment [5], 20%.

As for `Nc1nc2c(-c3cc(Br)c(Br)[nH]3)nccc2[nH]1` [Ageladine A, ageladine A, reference compound], the remaining activity at 1 µM was 23% in experiment [1]; 79% in experiment [2]; 45% in experiment [3]; 78% in experiment [4]; 54% in experiment [5]. The remaining activity at 10 µM in experiment [1] (10 μM) was found to be 2%; in experiment [2] (10 μM), 66%; in experiment [3] (10 μM), 19%; in experiment [4] (10 μM) it was 86%; in experiment [5] (10 μM), 100%.

For `Nc1nc2c(-c3cnc4ccccc4c3)nccc2[nH]1` [drawing 36, 4-(quinolin-3-yl)-1H-imidazo[4,5-c]pyridin-2-amine], the remaining activity at 1 µM worked out at 25% in experiment [1]; 100% in experiment [2]; 91% in experiment [3]; 100% in experiment [4]; 100% in experiment [5].
